Among the data in patent publication US20090227616A1, “INHIBITORS OF AKT ACTIVITY” (SMITHKLINE BEECHAM CORPORATION, a corporation, priority 2005, published 2009) are IC50 and solubility values, retold here.

The structures appear in SMILES notation. Converted amounts (≈) assume the structure as drawn.

In one series the target is T1, FL AKT1 (Homo sapiens, UniProt P31749).
T1 construct: Full-length human AKT1 gene was amplified by PCR; His tag (from vector pFastBacHTb; own knowledge that this vector adds an N-terminal 6xHis and TEV site) (N); made in house; host or cells: baculovirus; virus produced in Sf9, protein expressed in T. ni insect cells
Description: Full-length AKT enzyme assay (substrate phosphorylation, SPA). The format is biochemical. The conditions noted are these: 4 uM ATP.

A further series addresses T2, FL AKT2 (Homo sapiens, UniProt P31751).
T2 construct: 0.025 um, FL AKT2
The description is as above. The format is biochemical. The conditions noted are these: 4 uM ATP.

Series [1] relates to BT474 (human breast carcinoma). Description: Methylene Blue Growth Inhibition Assay. The series is classed as cell-based. The conditions noted are these: BT-474, 72 h, BT474, 3 days. How it is done: (§1) Tumor cell lines used in this assay were BT474 (human breast carcinoma) and LNCaP (lymph node metastasis of prostate cancer). HFF (normal human foreskin fibroblast) was also included. All cell lines were cultured in RPMI 1640 media (Invitrogen Corporation 22400-071) containing 10% Fetal Bovine Serum (FBS) at 37° C. in a humidified 5% CO2 incubator. Cells were harvested using trypsin/EDTA, counted using a hemacytometer and plated in 96-well tissue culture plates (Costar 35-3075), 100 uL per well, at the following densities: BT474 15,000 cells/well, LNCaP 5,000 cells/well and HFF 5,000 cells/well. 10 mM stocks of compounds in DMSO were serially diluted in DMSO through nine 3-fold dilutions in 96-well plates (Costar Corning 3363), and stored at −80C. The next day, compound dilutions were thawed and 4 uL of each transferred to 662 uL RPMI 1640+100 ug/mL gentamicin, resulting in twice the final required test concentrations. 100 uL of compounds diluted in RPMI 1640 were added to all cell lines. The final concentration of DMSO in all wells, including controls, was 0.3%. Cells were incubated at 37C, 5% CO2 for 3 days. Medium was removed by aspiration. Cell biomass was estimated by staining cells with 80 uL methylene blue (Sigma M9140, 0.5% in 50:50 ethanol:water), and incubating at room temperature for 1 hour. Stain was aspirated and the plates rinsed by immersion in water, then air-dried. Stain was released from cells by adding 100 uL of solubilizing solution (1% N-lauroyl sarcosine, sodium salt, Sigma L5125, in PBS) and incubating at room temperature for at least 30 minutes. Plates were shaken and the optical density at 620 nm was measured on a microplate reader. Percent inhibition of cell growth was calculated relative to vehicle-treated control wells. Concentration of compound that inhibits 50% of cell growth (IC50) was interpolated using non-linear regression (Levenberg-Marquadt) and the equation, y=Vmax*(1−(x̂n/K̂n+x̂n)))+Y2. [Ref: Mager, M. E. (1972) Data Analysis in Biochemistry and Biophysics. New York: Academic Press]

In series [2] the test system is HFF (normal human foreskin fibroblast). The series is described as follows: Methylene Blue Growth Inhibition Assay. The series is classed as cell-based. The conditions noted are these: 72 h, 3 days. How it is done:
as §1

Series [3] deals with LNCaP (lymph node metastasis of prostate cancer). Description: Methylene Blue Growth Inhibition Assay. The format is cell-based. The conditions noted are these: Homo sapiens, 72 h, 3 days. How it is done: as §1
A short description of series [4]: Solubility in 50 mM phosphate buffer at pH 7.4. The conditions noted are these: aqueous buffer. The series is classed as physicochemical.

Usually IC50 stands for the concentration at which inhibition is half-maximal. Higher therefore signals weaker potency in that assay. A word on the solubility: it is how much of the substance goes into solution per volume. A low value points to little dissolved substance.

T1 sequence (P31749 whole entry): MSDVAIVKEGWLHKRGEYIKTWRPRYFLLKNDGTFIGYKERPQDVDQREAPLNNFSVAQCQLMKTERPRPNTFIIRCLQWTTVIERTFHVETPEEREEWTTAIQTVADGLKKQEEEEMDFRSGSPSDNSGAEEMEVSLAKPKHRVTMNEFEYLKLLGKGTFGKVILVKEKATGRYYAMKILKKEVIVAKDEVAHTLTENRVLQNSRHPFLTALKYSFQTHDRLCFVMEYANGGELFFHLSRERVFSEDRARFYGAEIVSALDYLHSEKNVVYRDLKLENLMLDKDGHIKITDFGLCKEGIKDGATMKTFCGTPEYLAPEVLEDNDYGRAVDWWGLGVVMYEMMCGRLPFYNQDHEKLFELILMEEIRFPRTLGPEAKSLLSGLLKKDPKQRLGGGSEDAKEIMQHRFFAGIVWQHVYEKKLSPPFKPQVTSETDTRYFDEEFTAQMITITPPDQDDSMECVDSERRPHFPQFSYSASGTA
T2 sequence (P31751 whole entry): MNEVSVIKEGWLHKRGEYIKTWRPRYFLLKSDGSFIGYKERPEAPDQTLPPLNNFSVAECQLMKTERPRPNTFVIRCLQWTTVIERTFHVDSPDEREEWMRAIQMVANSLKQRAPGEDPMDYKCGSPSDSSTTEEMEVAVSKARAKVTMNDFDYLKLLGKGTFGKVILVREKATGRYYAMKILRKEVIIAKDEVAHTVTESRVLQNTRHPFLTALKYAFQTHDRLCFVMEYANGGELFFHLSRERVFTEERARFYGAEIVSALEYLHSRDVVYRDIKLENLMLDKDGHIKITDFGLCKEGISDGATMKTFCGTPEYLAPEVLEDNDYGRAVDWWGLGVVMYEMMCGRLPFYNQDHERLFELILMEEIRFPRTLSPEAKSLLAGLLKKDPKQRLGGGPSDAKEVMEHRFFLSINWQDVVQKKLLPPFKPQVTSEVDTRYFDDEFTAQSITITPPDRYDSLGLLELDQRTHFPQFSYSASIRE

As to `CCn1c(-c2nonc2N)nc2c(C#CC(C)(C)O)ncc(OCCCN3CCCCC3)c21` [Example 1, 4-(2-(4-amino-1,2,5-oxadiazol-3-yl)-1-ethyl-7-{[3-(1-piperidinyl)propyl]oxy}-1H-imidazo[4,5-c]pyridin-4-yl)-2-methyl-3-butyn-2-ol], the 50% inhibitory concentration (IC50) at FL AKT1 is 0.003 µM; against FL AKT2, 0.025 µM; in series [1] it was 0.496 µM; in series [2], 17.7 µM; in series [3] it was 0.096 µM. The molecule also came in with a solubility in series [4] of 35 µM (≈ 15.9 µg/mL).

On to `CCn1c(-c2nonc2N)nc2c(C#CC(C)(C)O)ncc(OCCCN3CCCC3)c21` [Example 2, 4-(2-(4-amino-1,2,5-oxadiazol-3-yl)-1-ethyl-7-{[3-(1-pyrrolidinyl)propyl]oxy}-1H-imidazo[4,5-c]pyridin-4-yl)-2-methyl-3-butyn-2-ol], for which the IC50 against FL AKT1 is 0.002 µM; against FL AKT2, 0.016 µM; in series [1], 0.437 µM; in series [2], over 15 µM; in series [3], 0.096 µM. The solubility in series [4] turned out to be 152 µM (≈ 66.8 µg/mL).

For `CCn1c(-c2nonc2N)nc2c(C#CC(C)(C)O)ncc(OCCCNCC3CC3)c21` [Example 10, 4-[2-(4-amino-1,2,5-oxadiazol-3-yl)-7-({3-[(cyclopropylmethyl)amino]propyl}oxy)-1-ethyl-1H-imidazo[4,5-c]pyridin-4-yl]-2-methyl-3-butyn-2-ol], the results for the IC50 in series [1], in series [2] and in series [3] were 0.249 µM, 17.5 µM and 0.066 µM, respectively. Moreover, the solubility in series [4] is 140 µM (≈ 61.5 µg/mL).

Regarding `CCCC(CN)COc1cnc(C#CC(C)(C)O)c2nc(-c3nonc3N)n(CC)c12` (stereo not shown) [Example 11, 4-[7-{[2-(aminomethyl)pentyl]oxy}-2-(4-amino-1,2,5-oxadiazol-3-yl)-1-ethyl-1H-imidazo[4,5-c]pyridin-4-yl]-2-methyl-3-butyn-2-ol], the IC50 in series [1] amounted to 0.225 µM; in series [2] it was 15 µM; in series [3] it was 0.057 µM. Besides, the solubility in series [4] stood at 203 µM (≈ 86.8 µg/mL).

On to `CCn1c(-c2nonc2N)nc2c(C#CC(C)(C)O)ncc(OCC(CN)CC(C)C)c21` (stereo not shown) [Example 12, 4-[7-{[2-(aminomethyl)-4-methylpentyl]oxy}-2-(4-amino-1,2,5-oxadiazol-3-yl)-1-ethyl-1H-imidazo[4,5-c]pyridin-4-yl]-2-methyl-3-butyn-2-ol], for which the IC50 in series [1] was 0.556 µM; in series [2], 26.4 µM; in series [3] it was 0.081 µM. Moreover, the concentration in solution in series [4] (solubility) was 164 µM (≈ 72.4 µg/mL).

In the case of `CCCCC(CN)COc1cnc(C#CC(C)(C)O)c2nc(-c3nonc3N)n(CC)c12` (stereo not shown) [Example 13, 4-[7-{[2-(aminomethyl)hexyl]oxy}-2-(4-amino-1,2,5-oxadiazol-3-yl)-1-ethyl-1H-imidazo[4,5-c]pyridin-4-yl]-2-methyl-3-butyn-2-ol], the IC50 was found to be 0.088 µM in series [1], 6.65 µM in series [2] and 0.032 µM in series [3]. For the same molecule, in series [4], the concentration in solution (solubility) came to 108 µM (≈ 47.7 µg/mL).

Regarding `CCn1c(-c2nonc2N)nc2c(C#CC(C)(C)O)ncc(OCC3(CN)CC3)c21` [Example 15, 4-[7-({[1-(aminomethyl)cyclopropyl]methyl}oxy)-2-(4-amino-1,2,5-oxadiazol-3-yl)-1-ethyl-1H-imidazo[4,5-c]pyridin-4-yl]-2-methyl-3-butyn-2-ol], the results for the concentration for half-maximal inhibition (IC50) in series [1], in series [2] and in series [3] were 0.093 µM, over 30 µM and 0.11 µM, respectively. Besides, the solubility in series [4] is 160 µM (≈ 65.8 µg/mL).

As to `CCCC(CCN)Oc1cnc(C#CC(C)(C)O)c2nc(-c3nonc3N)n(CC)c12` (stereo not shown) [Example 16, 4-[7-{[1-(2-aminoethyl)butyl]oxy}-2-(4-amino-1,2,5-oxadiazol-3-yl)-1-ethyl-1H-imidazo[4,5-c]pyridin-4-yl]-2-methyl-3-butyn-2-ol], the 50% inhibitory concentration (IC50) stood at 0.192 µM in series [1], 1.08 µM in series [2] and 0.007 µM in series [3]. Also, the concentration in solution in series [4] (solubility) came to 179 µM (≈ 76.5 µg/mL).

Consider `CCn1c(-c2nonc2N)nc2c(C#CC(C)(C)O)ncc(OC(CCN)C3CCCCC3)c21` (stereo not shown) [Example 18, 4-[7-[(3-amino-1-cyclohexylpropyl)oxy]-2-(4-amino-1,2,5-oxadiazol-3-yl)-1-ethyl-1H-imidazo[4,5-c]pyridin-4-yl]-2-methyl-3-butyn-2-ol], for which the IC50 in series [1] was found to be 0.051 µM; in series [2], 3.21 µM; in series [3], 0.061 µM. This molecule also had a solubility in series [4] of 112 µM (≈ 52.4 µg/mL).
